{"source": "patent US8268976B2", "about": "“Flea GABA receptor subunit nucleic acid molecules” (Heska Corporation, priority 2000, dated 2012)", "key": {"[1]": {"system": "cat fleas", "assay": "Survival of dieldrin-exposed fleas from the heterozygous population, sorted by sequenced genotype at amino acid 285", "format": "in vivo, Ctenocephalides felis", "conditions": "10 mM and 50 mM dieldrin, pooled", "experimental": "The following method was used to determine the genotype of individual fleas. Individual fleas were physically crushed with a pipette tip in a microcentrifuge tube with 30 μl of DNAzol, available from Gibco BRL, Rockville, Md., then heated to 95° C. for 5 minutes. The mixture was centrifuged for 2 minutes, the liquid was removed and DNA was precipitated with ethanol. The precipitated DNA was centrifuged, the ethanol was removed and the pellet was resuspended in 30 μl of distilled water. […] The following PCR thermocycling and reaction conditions were used (1) one cycle of 95° C. for 30 seconds, (2) 35 cycles of 94° C. for 10 seconds, 52° C. for 30 seconds, and 72° C. 30 seconds, in reactions containing 1× AmpliTaq Buffer, 2.0 U AmpliTaq polymerase, available from Perkin Elmer, Foster City, Calif., 0.2 mM dNTP's, and 0.5 uM each primer.\nThe PCR product was separated by gel electrophoresis and purified using a Qiaquick™ column, available from Qiagen to produce an approximately 240-nucleotide molecule. The 240-nucleotide product was then sequenced using primers 285for and 285rev and dRhodamine terminator chemistry and the sequence was read to determine whether the individual was homozygous for serine or alanine, or a heterozygote.\n(§1) Dieldrin was dissolved in dimethylsulfoxide (DMSO) at concentrations ranging from 0.001 mM to 1000 mM. About 1 ul of dissolved dieldrin from each concentration was spotted onto a 6 mm diameter GF/C filter disk (Whatman, Inc. Clifton, N.J.) in the bottom of a 4 ml screw-top glass vial and allowed to air dry for 24 hours. Negative control vials were prepared in the same manner except that no dieldrin was dissolved in the DMSO. Each dieldrin concentration was tested in triplicate for each of the three flea populations. About 25 newly emerged cat fleas were sedated at 4° C. and transferred to each vial. Each vial was sealed with a thin, perforated Teflon septum secured by an open top screw cap and held vertically in the dark. After about 30 hours, the healthy live, moribund, and dead fleas in each vial were counted."}, "[2]": {"system": "cat fleas", "assay": "Dieldrin filter-disk vial exposure of fleas, mortality (LC50) per flea population", "conditions": "Ctenocephalides felis, in Felis catus, 30 h, about 1 ul of DMSO solution on filter disk in vial, about 30 hours", "experimental": "as §1"}}, "note": "Where two headings read alike, the source gives them in different places."}
{"smiles": "ClC1=C(Cl)[C@]2(Cl)[C@@H]3[C@@H]4C[C@@H]([C@H]5O[C@@H]45)[C@@H]3[C@@]1(Cl)C2(Cl)Cl", "note": "[dieldrin]", "values": [{"measurement": "number of dead fleas", "setting": "[1]; of 1 homozygous alanine flea", "result": 1}, {"measurement": "number of dead fleas", "setting": "[1]; of 21 homozygous serine fleas", "result": 4}, {"measurement": "number of live fleas", "setting": "[1]; of 21 homozygous serine fleas", "result": 16}, {"measurement": "number of moribund fleas", "setting": "[1]; of 21 homozygous serine fleas", "result": 1}, {"measurement": "number of dead fleas", "setting": "[1]; of 29 heterozygotes", "result": 24}, {"measurement": "number of live fleas", "setting": "[1]; of 29 heterozygotes", "result": 2}, {"measurement": "number of moribund fleas", "setting": "[1]; of 29 heterozygotes", "result": 3}, {"measurement": "LC50", "setting": "[2]; read-out: LC50 (concentration of dieldrin at which 50% of the fleas were killed), heterozygous alanine/serine flea population (amino acid 285)", "result": 1000, "unit": "µM"}, {"measurement": "LC50", "setting": "[2]; read-out: LC50 (concentration of dieldrin at which 50% of the fleas were killed), homozygous alanine flea population (amino acid 285)", "result": 200, "unit": "µM"}, {"measurement": "LC50", "setting": "[2]; read-out: LC50 (concentration of dieldrin at which 50% of the fleas were killed), homozygous serine flea population (amino acid 285)", "result": 30000, "unit": "µM"}]}
